These results are taken from ChEMBL document CHEMBL3638434, “1H-pyrrolo[2,3 b]-pyridine derivatives” (2014).

Structures are written as SMILES.

The target in the experiment is T1, 3-phosphoinositide-dependent protein kinase 1 (Homo sapiens, UniProt O15530).
T1 sequence (O15530 whole entry): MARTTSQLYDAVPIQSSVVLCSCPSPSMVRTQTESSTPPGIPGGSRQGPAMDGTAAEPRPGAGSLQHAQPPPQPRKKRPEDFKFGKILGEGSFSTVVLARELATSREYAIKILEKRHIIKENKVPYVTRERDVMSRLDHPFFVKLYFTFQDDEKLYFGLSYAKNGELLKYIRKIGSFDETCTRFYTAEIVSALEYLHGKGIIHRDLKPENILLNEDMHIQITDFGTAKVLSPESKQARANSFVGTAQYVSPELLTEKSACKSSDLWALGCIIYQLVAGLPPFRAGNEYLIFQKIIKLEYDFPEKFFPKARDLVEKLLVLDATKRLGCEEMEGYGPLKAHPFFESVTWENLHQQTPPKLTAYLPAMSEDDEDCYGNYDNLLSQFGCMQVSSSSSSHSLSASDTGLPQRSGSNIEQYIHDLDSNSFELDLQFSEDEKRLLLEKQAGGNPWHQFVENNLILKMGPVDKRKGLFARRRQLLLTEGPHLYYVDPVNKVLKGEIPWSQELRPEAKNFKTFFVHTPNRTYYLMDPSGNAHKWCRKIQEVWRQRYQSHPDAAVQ
As to the kind of experiment: Inhibition Assay: The compound inhibits the target protein in the enzymatic PDK1 inhibition assay.

The IC50 is the midpoint of a concentration-inhibition curve. For `Cn1cc(-c2cnc3[nH]cc(-c4cc(N(CCC#N)c5ccccc5)nc(N)n4)c3c2)cn1`, it took 7.9 nM to reach half-maximal inhibition (IC50).

`CN(c1cccc(F)c1)c1cc(-c2c[nH]c3ncc(-c4cnn(C)c4)cc23)ncn1` registered an IC50 of 190 nM.
